{"source": "patent US20030232114A1", "about": "“Method for liquid enrichment with oxygen and applications of enriched liquids” (priority 2002, published 2003)", "test_system": "rats having a myocardial infarction due to a restriction of the coronaries", "assay": "Oxygen consumption in damaged tissues of rats with myocardial infarction (acute occlusion of blood vessels)", "type": "in vivo", "conditions": "conventional oxygen treatment by inhalation by means of a cannula, monitored for five days", "description": "The oxygen enriched solutions of the invention were tested on experimental animals subjected to an acute occlusion of blood vessels which provoked degenerative changes of the interested tissues.\nAn oxygen enriched physiological solution of 0.3 cc having an oxygen partial pressure of 2 bar was intravenously administered at a rate of 1 g/min twice a days to a first group of 5 rats having a myocardial infarction due to a restriction of the coronaries. A second group of rats with the same disease, was subjected to a conventional oxygen treatment by inhalation by means of a cannula.\nThe results of the treatment were monitored and scheduled for five days. The first group of animals, treated by administering a solution in accordance with an embodiment of the present invention consumed 20% of oxygen in the damaged tissues whereas the second group which received the oxygen by inhalation consumed only 5% of oxygen in the damaged tissues."}
{"smiles": "O=O", "note": "[oxygen]", "values": [{"measurement": "oxygen consumed in the damaged tissues", "result": 5, "unit": "%"}]}
